In patent US11028058B2, “Heterocyclic compounds as adenosine antagonists” (NUVATION BIO INC., priority 2017, dated 2021):
One block for each molecule: values may come before it.

Experiments:
adenosine A2A receptor = adenosine A2A receptor (Homo sapiens (Human), UniProt P29274); assay: A2A adenosine receptor radioligand binding competition assay (filter plates)
Protocol: Binding of selected compounds to the adenosine A2A, A1, A2B, and A3 receptors was tested using a binding competition assay.
The general protocol for the radioligand binding competition assay was as follows. Competition binding was performed in duplicate in the wells of a 96 well plate (Master Block, Greiner, 786201) containing binding buffer (optimized for each receptor), membrane extracts (amount of protein/well optimized for each receptor), radiotracer (final concentration optimized for each receptor), and test compound. Nonspecific binding was determined by co-incubation with 200-fold excess of cold competitor. The samples were incubated in a final volume of 0.1 mL at 25° C. for 60 minutes and then filtered over filter plates. Filters were washed six times with 0.5 mL of ice-cold washing buffer (optimized for each receptor) and 50 μL of Microscint 20 (Packard) were added on each filter. The filter plates were sealed, incubated 15 min on an orbital shaker and scintillation counted with a TopCount for 30 sec/filter.
(§1) For the A2A adenosine receptor radioligand binding assay, the following modifications were made to the general protocol. GF/C filters (Perkin Elmer, 6005174), presoaked in 0.01% Brij for 2 h at room temperature were used. Filters were washed six times with 0.5 mL of ice-cold washing buffer (50 mM Tris pH 7.4) and 50 μL of Microscint 20 (Packard) was added in each well. The plates were then incubated for 15 min on an orbital shaker and then counted with a TopCount™ for 1 min/well. Another radioligand binding assay was used to evaluate the binding affinity for the adenosine A2A receptor assay was performed in duplicate in the wells of a 384 plate. Assay buffer contained DPBS 500 mM, MgCl2 0.1 mM, and 1% DMSO. Membrane-bead suspension was prepared by mixing 25.98 μL of human adenosine A2A membrane preparation (Perkin Elmer, RBHA2AM400UA) at 33.4 μg/mL, 28 μL of ADA at 20 μg/mL, and 932 μL of SPA beads at 3.33 mg/mL) and incubated the mixture for 20 min at room temperature. Mixed 20 μL of radiotracer (^3H-SCH 58261) at 15 nM to each well containing test articles at various concentrations and centrifuge the plate at 1000 rpm for 1 minute. Added 30 μL of the membraine-bead suspension to each well. Sealed the plates and incubated for 1 hr at room temperature with vigorous mixing on a plate mixer. Plates were read on Microbeta^2 (Perkin Elmer, 2450-0010).

[1] = biological target: T1, HEK-293 cells expressing human recombinant adenosine A2A receptor (Homo sapiens (Human), UniProt P29274); assay: cAMP assay, Assay 1 (HTRF kit); type: cell-based; conditions: HEK293, 100 nM, read-out: A2a cAMP (% inh @ 100 nM)
T1 sequence (P29274 whole entry): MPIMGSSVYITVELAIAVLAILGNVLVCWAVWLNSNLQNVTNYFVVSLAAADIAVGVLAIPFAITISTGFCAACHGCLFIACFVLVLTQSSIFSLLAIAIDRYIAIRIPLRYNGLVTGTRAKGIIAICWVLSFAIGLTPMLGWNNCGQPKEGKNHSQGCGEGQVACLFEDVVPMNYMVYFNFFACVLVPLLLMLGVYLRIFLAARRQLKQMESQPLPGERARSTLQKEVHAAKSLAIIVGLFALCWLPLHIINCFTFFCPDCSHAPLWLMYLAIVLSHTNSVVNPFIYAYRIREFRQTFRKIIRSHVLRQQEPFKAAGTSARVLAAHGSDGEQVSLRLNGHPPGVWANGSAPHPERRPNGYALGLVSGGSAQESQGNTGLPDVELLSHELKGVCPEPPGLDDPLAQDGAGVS
Protocol: (§2) The functional activity of compounds was tested using one of the two assays to detect the present of cAMP. Activation of G-protein coupled receptors (such as A2A) results in activation of adenylcyclase which converts ATP into cAMP which is used as a downstream signaling molecule. Therefore, molecules which act as GPCR (or specifically A2A receptor) antagonists cause a decrease in intracellular cAMP concentration.
(§3) Both assays used HEK-293 cells expressing human recombinant adenosine A2A receptor were grown prior to the test in media without antibiotic.
12 μL of cells were mixed with 6 μL of the test compound at increasing concentrations and then incubated for 10 min. Thereafter 6 μL of the reference agonist was added at a final concentration corresponding to the historical EC80. The plates were then incubated for 30 min at room temperature. After addition of the lysis buffer and 1 hour incubation, cAMP concentrations were estimated, according to the manufacturer specification, with the HTRF® kit.

[2] = biological target: T1, HEK-293 cells expressing human recombinant adenosine A2A receptor; assay: cAMP assay, Assay 2 (Eu-cAMP tracer / ULight-anti-cAMP); type: cell-based
Protocol: as §2, §3
Assay 2 (Table B2-2): 100 nL of test articles at 100× of final concentration were transferred to assay plate by Echo. Cells were washed twice with 5 mL of PBS […]. After aspirating the PBS and adding 1.5 mL versine, cells were incubated at 37° C. for 2-5 min. After centrifugation, 4 mL of medium was added and adjusted cell density to 5,000 cells/well with Stimulation Buffer. 10 μL of cells were aliquoted to the assay plate, centrifuged at 1000 rpm for 1 minute, and incubated for 60 minutes at room temperature. 5 μL 4×Eu-cAMP tracer solution and 5 μL 4×Ulight™-anti-cAMP solution were added to assay plate, followed by centrifugation and 60-minute incubation at room temperature. Plates were read on EnVision.

[3] = biological target: human adenosine A2A membrane preparation (Homo sapiens (Human), UniProt P29274); assay: Adenosine A2A receptor radioligand binding assay (SPA beads, 3H-SCH 58261, 384 plate); conditions: for inhibition at 0.001 µM: read-out: A2a binding % inh @ 1 nM; for inhibition at 0.01 µM: read-out: A2a binding % inh @ 10 nM; for inhibition at 0.1 µM: read-out: A2a binding % inh @ 100 nM; for inhibition at 1 µM: read-out: A2a binding % inh @ 1000 nM; for inhibition at 3 µM: read-out: A2a binding % inh @ 3000 nM; for IC50: Table B1-2
Sequence of human adenosine A2A membrane preparation (P29274 whole entry): as above
Protocol: as §1

[4] = HEK293, 100 nM, Assay 2, read-out: A2a cAMP % inh @ 100 nM

Sequence of adenosine A2A receptor (P29274 whole entry): as above

A2A radioligand binding competition assay % residual binding @ 3000 nM (adenosine A2A receptor): 8/ND/ND/ND %
inhibition at 0.1 µM [1]: 99%
SMILES: Nc1cnc(-c2cc(Cl)c3ncccc3c2)c(-c2ccccc2)n1 [Compound No. 1.17, 5-(8-chloroquinolin-6-yl)-6-phenylpyrazin-2-amine]

SMILES: Nc1cnc(-c2ccc(O)c(Cl)c2)c(-c2ccco2)n1 [Compound No. 1.8, 4-(5-amino-3-(furan-2-yl)pyrazin-2-yl)-2-chlorophenol]
A2A radioligand binding competition assay % residual binding @ 300 nM (adenosine A2A receptor): ND/ND/39/ND %
inhibition at 0.1 µM [1]: 100%

A2A radioligand binding competition assay % residual binding @ 100 nM (adenosine A2A receptor): 83%
A2A radioligand binding competition assay % residual binding @ 300 nM (adenosine A2A receptor): 69%
A2A radioligand binding competition assay % residual binding @ 1000 nM (adenosine A2A receptor): 17%
A2A radioligand binding competition assay % residual binding @ 3000 nM (adenosine A2A receptor): 18%
inhibition at 0.1 µM [1]: 51%
SMILES: Nc1cnc(-c2cc(Cl)c3[nH]cnc3c2)c(-c2ccccc2)n1 [Compound No. 1.13, 5-(7-chloro-1H-benzo[d]imidazol-5-yl)-6-phenylpyrazin-2-amine]

inhibition at 0.1 µM [1]: 1.4%
SMILES: Nc1cnc(-c2ccc3[nH]ccc3c2)c(-c2ccccc2)n1 [Compound No. 1.4, 5-(1H-indol-5-yl)-6-phenylpyrazin-2-amine]

SMILES: N#Cc1nc(-c2ccc3ncccc3c2)c(-c2ccccc2)nc1N [Compound 1.19, 3-amino-5-phenyl-6-(quinolin-6-yl)pyrazine-2-carbonitrile]
A2A radioligand binding competition assay % residual binding @ 3000 nM (adenosine A2A receptor): 4/ND/ND/ND %
inhibition at 0.1 µM [1]: 100%

A2A radioligand binding competition assay % residual binding @ 300 nM (adenosine A2A receptor): ND/ND/126/ND %
inhibition at 0.1 µM [1]: 100%
SMILES: N#Cc1cc(-c2ncc(N)nc2-c2ccccc2)ccc1O [Compound No. 1.11, 5-(5-amino-3-phenylpyrazin-2-yl)-2-hydroxybenzonitrile]

A2A radioligand binding competition assay % residual binding @ 100 nM (adenosine A2A receptor): 77%
A2A radioligand binding competition assay % residual binding @ 300 nM (adenosine A2A receptor): 70%
A2A radioligand binding competition assay % residual binding @ 1000 nM (adenosine A2A receptor): 64%
A2A radioligand binding competition assay % residual binding @ 3000 nM (adenosine A2A receptor): 39%
inhibition at 0.1 µM [1]: 100%
SMILES: Nc1cnc(-c2ccc3[nH]cnc3c2)c(-c2ccccc2)n1 [Compound No. 1.10, 5-(1H-benzo[d]imidazol-6-yl)-6-phenylpyrazin-2-amine]

A2A radioligand binding competition assay % residual binding @ 300 nM (adenosine A2A receptor): 66%
A2A radioligand binding competition assay % residual binding @ 1000 nM (adenosine A2A receptor): 12%
A2A radioligand binding competition assay % residual binding @ 3000 nM (adenosine A2A receptor): 12%
inhibition at 0.1 µM [1]: 94%
SMILES: Nc1cnc(-c2ccc3ncccc3c2)c(-c2ccccc2)n1 [Compound No. 1.12, 6-phenyl-5-(quinolin-6-yl)pyrazin-2-amine]

inhibition at 0.1 µM [2, 4]: 20%
inhibition at 0.001 µM [3]: 40%
inhibition at 0.01 µM [3]: 87%
inhibition at 0.1 µM [3]: 96%
inhibition at 1 µM [3]: 86%
SMILES: Cc1ccn(-c2nc(N)cnc2-c2ccc3ncsc3c2)n1 [Compound No. 1.286, 5-(benzo[d]thiazol-6-yl)-6-(3-methyl-1H-pyrazol-1-yl)pyrazin-2-amine]

inhibition at 0.1 µM [2, 4]: 44%
inhibition at 3 µM [3]: 83%
SMILES: N#Cc1nc(-c2cc(Cl)c3[nH]cnc3c2)c(-c2ccccc2)nc1N [Compound No. 1.277, 3-amino-6-(7-chloro-1H-benzimidazol-5-yl)-5-phenylpyrazine-2-carbonitrile]

inhibition at 0.1 µM [2, 4]: 60%
inhibition at 3 µM [3]: 80%
SMILES: N#Cc1nc(-c2ccc3[nH]ncc3c2)c(-c2ccccc2)nc1N [Compound No. 1.274, 3-amino-6-(1H-indazol-5-yl)-5-phenylpyrazine-2-carbonitrile]

IC50 ([2]; Assay 2): 35.7 nM
IC50 [3]: 3.3 nM
inhibition at 0.001 µM [3]: 57%
inhibition at 0.01 µM [3]: 85%
inhibition at 0.1 µM [3]: 89%
inhibition at 1 µM [3]: 89%
SMILES: Cc1ccn(-c2nc(N)c(C#N)nc2-c2ccc3ncccc3c2)n1 [Compound No. 1.290, 3-amino-5-(3-methyl-1H-pyrazol-1-yl)-6-(quinolin-6-yl)pyrazine-2-carbonitrile]

inhibition at 0.1 µM [2, 4]: 51%
inhibition at 3 µM [3]: 75%
SMILES: Cc1ccn(-c2nc(N)cnc2-c2ccc3ncccc3c2)n1 [Compound No. 1.280]

IC50 ([2]; Assay 2): 1400 nM
IC50 [3]: 101 nM
SMILES: Cn1ccc(-c2nc(N)cnc2-c2ccc3c(=O)[nH]ccc3c2)n1 [Compound 1.315, 6-(5-amino-3-(1-methyl-1H-pyrazol-3-yl)pyrazin-2-yl)isoquinolin-1-ol]

inhibition at 0.1 µM [1]: 49%
SMILES: Cc1nc2cc(-c3ncc(N)nc3-c3ccccc3)ccc2[nH]1 [1.9, 5-(2-methyl-1H-benzo[d]imidazol-5-yl)-6-phenylpyrazin-2-amine]

inhibition at 0.1 µM [1]: 47%
SMILES: CC(C)(C)c1cc(-c2ncc(N)nc2-c2ccccc2)ccc1O [Compound No. 1.6, 4-(5-amino-3-phenylpyrazin-2-yl)-2-tert-butylphenol]

inhibition at 0.1 µM [2, 4]: 0%
inhibition at 3 µM [3]: 11%
SMILES: Nc1nc(-c2ccccc2)c(-c2ccc3ncccc3c2)nc1N1CCOCC1 [Compound No. 1.275, 3-morpholino-6-phenyl-5-(quinolin-6-yl)pyrazin-2-amine]

IC50 ([2]; Assay 2): 304 nM
inhibition at 3 µM [3]: 95%
SMILES: Nc1cnc(-c2cc(Cl)c3ncccc3c2)c(-c2cc3ccccc3o2)n1 [Compound No. 1.278]

inhibition at 0.1 µM [2, 4]: 12%
inhibition at 3 µM [3]: 30%
SMILES: Nc1cnc(-c2ccc3c(c2)CCCN3)c(-c2ccccc2)n1 [Compound No. 1.186, 6-phenyl-5-(1,2,3,4-tetrahydroquinolin-6-yl)pyrazin-2-amine]

IC50 ([2]; Assay 2): 47.9 nM
IC50 [3]: 17 nM
SMILES: Cn1ccc(-c2nc(N)cnc2-c2cc(Cl)c3ncccc3c2)n1 [Compound 1.297, 5-(8-chloroquinolin-6-yl)-6-(1-methyl-1H-pyrazol-3-yl)pyrazin-2-amine]

SMILES: Cc1ncc(-c2nc(N)cnc2-c2cc(Cl)c3ncccc3c2)s1 [Compound 1.318, 5-(8-chloroquinolin-6-yl)-6-(2-methylthiazol-5-yl)pyrazin-2-amine]
IC50 ([2]; Assay 2): 200 nM
IC50 [3]: 9.4 nM

inhibition at 0.1 µM [2, 4]: 96%
inhibition at 3 µM [3]: 80%
SMILES: NC(=O)c1nc(-c2ccc3ncccc3c2)c(-c2ccccc2)nc1N [Compound No. 1.272, 3-amino-5-phenyl-6-(quinolin-6-yl)pyrazine-2-carboxamide]

inhibition at 0.1 µM [2, 4]: 77%
inhibition at 3 µM [3]: 81%
SMILES: Nc1cnc(-c2ccc3ncsc3c2)c(-c2ccccc2)n1 [Compound No. 1.36, 5-(benzo[d]thiazol-6-yl)-6-phenylpyrazin-2-amine]

SMILES: Nc1cnc(-c2ccc3ncccc3c2)c(-c2ccccn2)n1 [Compound No. 1.25, 6-(pyridin-2-yl)-5-(quinolin-6-yl)pyrazin-2-amine]
inhibition at 0.1 µM ([2]; HEK293, read-out: A2a cAMP % inh @ 100 nM): 6%
inhibition at 3 µM [3]: 48%

inhibition at 0.1 µM [2, 4]: 16%
inhibition at 0.001 µM [3]: 42%
inhibition at 0.01 µM [3]: 77%
inhibition at 0.1 µM [3]: 90%
inhibition at 1 µM [3]: 80%
SMILES: Cc1ccn(-c2nc(N)cnc2-c2ccc3[nH]ncc3c2)n1 [Compound No. 1.287, 5-(1H-indazol-5-yl)-6-(3-methyl-1H-pyrazol-1-yl)pyrazin-2-amine]

IC50 ([2]; Assay 2): 50 nM
IC50 [3]: 2.1 nM
SMILES: Cc1ccn(-c2nc(N)cnc2-c2cc(Cl)c3ncccc3c2)n1 [Compound No. 1.271, 5-(8-chloroquinolin-6-yl)-6-(3-methyl-1H-pyrazol-1-yl)pyrazin-2-amine]
